Source: patent publication US7304050B2, “Antibacterial agents” (Pfizer Inc., priority 2003, dated 2007)
Converted amounts (≈) assume the structure as drawn.

Tests used:
M. catarrhalis BC3534 = assay: Antibacterial assay (Test A), microtitration MIC, Gram negative; format: cell-based; settings: Gram Negative Bacteria, strain BC3534; for MIC: Moraxella catarrhalis, read-out: Minimum Inhibitory Concentrations M. catarrhalis BC3534
Procedure: (§1) The compounds of the present invention were tested against an assortment of Gram-negative and Gram-positive organisms using standard microtitration techniques (Cohen et. al., Antimicrob., 1985;28:766;Heifetz, et. al., Antimicrob., 1974;6: 124).

H. influenzae HI3542 = assay: as above; format: cell-based; settings: Gram Negative Bacteria, strain HI3542; for MIC: Haemophilus influenzae, read-out: Minimum Inhibitory Concentrations H. influenzae HI3542
Procedure: as §1

E. coli Tol C = assay: as above; format: cell-based; settings: for MIC: Escherichia coli, read-out: Minimum Inhibitory Concentrations E. coli Tol C
Procedure: as §1

S pyogenes C203 = assay: Antibacterial assay (Test A), microtitration MIC, Gram positive; format: cell-based; settings: Gram Positive Bacteria, strain C203; for MIC: read-out: Minimum Inhibitory Concentrations S pyogenes C203
Procedure: as §1

S. aureus UC-76 = assay: as above; format: cell-based; settings: Gram Positive Bacteria, strain UC-76; for MIC: Staphylococcus aureus, UC76, read-out: Minimum Inhibitory Concentrations S. aureus UC-76
Procedure: as §1

E. faecalis MGH-2 = assay: as above; format: cell-based; settings: Gram Positive Bacteria, strain MGH-2; for MIC: Enterococcus faecalis, MGH2, read-out: Minimum Inhibitory Concentrations E. faecalis MGH-2
Procedure: as §1

[1] = tested on: E. coli transcription and translation (TnT); format: biochemical

Compound	Minimum Inhibitory Concentrations M. catarrhalis BC3534 (M. catarrhalis BC3534) [µg/mL]	Minimum Inhibitory Concentrations H. influenzae HI3542 (H. influenzae HI3542) [µg/mL]	Minimum Inhibitory Concentrations E. coli Tol C (E. coli Tol C; Gram Negative Bacteria, strain Tol C) [µg/mL]	Minimum Inhibitory Concentrations S pyogenes C203 (S pyogenes C203) [µg/mL]	Minimum Inhibitory Concentrations S. aureus UC-76 (S. aureus UC-76) [µg/mL]	Minimum Inhibitory Concentrations E. faecalis MGH-2 (E. faecalis MGH-2) [µg/mL]	MIC (M. catarrhalis BC3534) [µg/mL]	MIC (H. influenzae HI3542) [µg/mL]	MIC (E. coli Tol C) [µg/mL]	Inhibitory concentration in E. coli cell-free transcription/translation (TnT) assay [1] [µg/mL]	MIC (S pyogenes C203) [µg/mL]	MIC (S. aureus UC-76) [µg/mL]	MIC (E. faecalis MGH-2) [µg/mL]
7-{7-[5-(Acetylamino-methyl)-2-oxo-oxazolidin-3-yl]-1,3,4,5-tetrahydro-benzo[c]azepin-2-yl}-1-cyclopropyl-8-difluoromethoxy-6-fluoro-4-oxo-1,4-dihydro-[1,8]naphthyridine-3-carboxylic Acid [Example 18]	2	0.06	16	0.06	1	8							
COc1c(N2CCCc3cc(N4C[C@H](CNC(C)=O)OC4=O)ccc3C2)c(F)c(C)c2c(=O)c(C(=O)O)cn(C3CC3)c12 (stereo in doubt) [Example 2, 7-{7-[5-(Acetylamino-methyl)-2-oxo-oxazolidin-3-yl]-1,3,4,5-tetrahydro-benzo[c]azepin-2-yl}-1-cyclopropyl-6-fluoro-8-methoxy-5-methyl-4-oxo-1,4-dihydro-quinoline-3-carboxylic Acid]							8 (≈ 13.5 µM)	0.06 (≈ 0.101 µM)	16 (≈ 27 µM)	9.6	8 (≈ 13.5 µM)	0.06 (≈ 0.101 µM)	8 (≈ 13.5 µM)
COc1c(N2CCCc3cc(N4C[C@H](CNC(C)=O)OC4=O)ccc3C2)c(F)cc2c(=O)c(C(=O)O)cn(C3CC3)c12 (stereo in doubt) [Example 4, 7-{7-[5-(Acetylamino-methyl)-2-oxo-oxazolidin-3-yl]-1,3,4,5-tetrahydro-benzo[c]azepin-2-yl}-1-cyclopropyl-6-fluoro-8-methoxy-4-oxo-1,4-dihydro-quinoline-3-carboxylic Acid]							0.5 (≈ 0.864 µM)	0.06 (≈ 0.104 µM)	2 (≈ 3.46 µM)	4.0	1 (≈ 1.73 µM)	0.06 (≈ 0.104 µM)	1 (≈ 1.73 µM)
CC(=O)NC[C@H]1CN(c2ccc3c(c2)CCCN(c2c(F)cc4c(=O)c(C(=O)O)cn(C5CC5)c4c2F)C3)C(=O)O1 (stereo in doubt) [Example 13, 7-{7-[5-(Acetylamino-methyl)-2-oxo-oxazolidin-3-yl]-1,3,4,5-tetrahydro-benzo[c]azepin-2-yl}-1-cyclopropyl-6,8-difluoro-4-oxo-1,4-dihydro-quinoline-3-carboxylic Acid]							1 (≈ 1.77 µM)	0.06 (≈ 0.106 µM)	4 (≈ 7.06 µM)	0.6	2 (≈ 3.53 µM)	0.5 (≈ 0.883 µM)	8 (≈ 14.1 µM)
CC(=O)NC[C@H]1CN(c2ccc3c(c2)CCCN(c2nc4c(cc2F)c(=O)c(C(=O)O)cn4C2CC2)C3)C(=O)O1 (stereo in doubt) [Example 15, 7-{7-[5-(Acetylamino-methyl)-2-oxo-oxazolidin-3-yl]-1,3,4,5-tetrahydro-benzo[c]azepin-2-yl}-1-cyclopropyl-6-fluoro-4-oxo-1,4-dihydro-[1,8]naphthyridine-3-carboxylic Acid]							4 (≈ 7.28 µM)	0.06 (≈ 0.109 µM)	4 (≈ 7.28 µM)		4 (≈ 7.28 µM)	2 (≈ 3.64 µM)	4 (≈ 7.28 µM)
CC(=O)NC[C@H]1CN(c2ccc3c(c2)CCCN(c2c(F)cc4c(=O)c(C(=O)O)cn(C5CC5)c4c2Cl)C3)C(=O)O1 [Example 1, 7-{7-[5-(Acetylamino-methyl)-2-oxo-oxazolidin-3-yl]-1,3,4,5-tetrahydro-benzo[c]azepin-2-yl}-8-chloro-1-cyclopropyl-6-fluoro-4-oxo-1,4-dihydro-quinoline-3-carboxylic Acid]							0.25 (≈ 0.429 µM)	0.06 (≈ 0.103 µM)	2 (≈ 3.43 µM)	9.4	2 (≈ 3.43 µM)	0.06 (≈ 0.103 µM)	1 (≈ 1.72 µM)
CC(=O)NC[C@H]1CN(c2ccc3c(c2)CCCN(c2cc4c(c(C)c2F)c(=O)c(C(=O)O)cn4C2CC2)C3)C(=O)O1 [Example 3, 7-{7-[5-(Acetylamino-methyl)-2-oxo-oxazolidin-3-yl]-1,3,4,5-tetrahydro-benzo[c]azepin-2-yl}-1-cyclopropyl-6-fluoro-5-methyl-4-oxo-1,4-dihydro-quinoline-3-carboxylic Acid]							16 (≈ 28.4 µM)	0.06 (≈ 0.107 µM)	32 (≈ 56.9 µM)		16 (≈ 28.4 µM)	1 (≈ 1.78 µM)	32 (≈ 56.9 µM)
